Test results published in patent US10259776B2, “Branched 3-phenylpropionic acid derivatives and their use” (BAYER INTELLECTUAL PROPERTY GMBH, priority 2011, dated 2019).

Columns and labels:
[1] = biological target: sGC in the CHO reporter cell (Rattus norvegicus (Rat), UniProt P20595); experiment: Action at a recombinant guanylate cyclase reporter cell line; format: cell-based; details: CHO reporter cell in vitro
Description: The cellular action of the compounds according to the invention is determined at a recombinant guanylate cyclase reporter cell line, as described in F. Wunder et al., Anal. Biochem. 339, 104-112 (2005).

[2] = biological target: soluble guanylate cyclase (sGC) (Rattus norvegicus (Rat), UniProt P20595); experiment: Stimulation of sGC enzyme activity (PPi detection, luciferase); format: biochemical; details: sGC enzyme in vitro
soluble guanylate cyclase (sGC), sequence (P20595 whole entry): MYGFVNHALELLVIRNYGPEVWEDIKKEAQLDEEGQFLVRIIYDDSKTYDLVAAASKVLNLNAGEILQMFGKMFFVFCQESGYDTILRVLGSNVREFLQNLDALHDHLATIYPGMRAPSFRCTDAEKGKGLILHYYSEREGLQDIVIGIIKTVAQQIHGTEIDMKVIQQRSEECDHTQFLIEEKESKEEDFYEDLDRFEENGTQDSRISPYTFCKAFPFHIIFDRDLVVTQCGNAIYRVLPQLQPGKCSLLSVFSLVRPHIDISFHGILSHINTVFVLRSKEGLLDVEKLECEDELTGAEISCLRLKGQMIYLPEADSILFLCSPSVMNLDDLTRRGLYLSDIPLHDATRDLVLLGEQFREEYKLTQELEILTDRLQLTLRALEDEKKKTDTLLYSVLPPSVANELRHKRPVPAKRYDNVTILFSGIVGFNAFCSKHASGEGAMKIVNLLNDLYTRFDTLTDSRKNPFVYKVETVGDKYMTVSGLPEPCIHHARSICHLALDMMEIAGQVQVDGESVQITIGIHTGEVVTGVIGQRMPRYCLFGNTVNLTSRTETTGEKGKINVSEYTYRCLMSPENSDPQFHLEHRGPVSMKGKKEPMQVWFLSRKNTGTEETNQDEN
soluble guanylate cyclase (sGC), sequence (P19686 whole entry partner): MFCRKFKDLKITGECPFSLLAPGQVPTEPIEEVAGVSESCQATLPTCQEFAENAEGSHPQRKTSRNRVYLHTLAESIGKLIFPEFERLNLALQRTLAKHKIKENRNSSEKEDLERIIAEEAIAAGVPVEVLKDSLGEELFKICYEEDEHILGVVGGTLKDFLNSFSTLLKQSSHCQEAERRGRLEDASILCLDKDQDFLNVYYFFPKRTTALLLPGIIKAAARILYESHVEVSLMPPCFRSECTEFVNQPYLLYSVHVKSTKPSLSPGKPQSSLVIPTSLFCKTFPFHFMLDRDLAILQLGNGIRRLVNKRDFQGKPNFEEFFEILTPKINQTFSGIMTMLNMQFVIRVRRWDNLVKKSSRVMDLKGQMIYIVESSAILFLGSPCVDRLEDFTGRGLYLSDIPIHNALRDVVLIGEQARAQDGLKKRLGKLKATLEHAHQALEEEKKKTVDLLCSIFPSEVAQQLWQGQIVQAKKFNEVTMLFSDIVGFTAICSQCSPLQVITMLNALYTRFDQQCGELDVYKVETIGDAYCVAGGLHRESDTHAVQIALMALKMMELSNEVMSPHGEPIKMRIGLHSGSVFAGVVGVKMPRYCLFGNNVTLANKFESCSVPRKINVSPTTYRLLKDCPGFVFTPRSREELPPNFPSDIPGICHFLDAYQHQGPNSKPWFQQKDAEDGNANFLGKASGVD
Description: Soluble guanylate cyclase (sGC) converts on stimulation GTP into cGMP and pyrophosphate (PPi). PPi is detected with the aid of the assay described below. The signal produced in the assay increases as the reaction progresses and serves as a measure of the sGC enzyme activity under the given stimulation.
To carry out the assay, 29 μl of enzyme solution [0-10 nM soluble guanylate cyclase (prepared according to Honicka et al., J. Mol. Med. 77, 14-23 (1999)) in 50 mM TEA, 2 mM MgCl2, 0.1% BSA (fraction V), 0.005% Brij®, pH 7.5] are initially introduced into a microplate, and 1 μl of the substance to be tested (as a serially diluted solution in DMSO) is added. The mixture is incubated at room temperature for 10 min. […] The enzyme reaction is started by adding 20 μl of substrate solution [1.25 mM guanosine 5′-triphosphate (Sigma) in 50 mM TEA, 2 mM MgCl2, 0.1% BSA (fraction V), 0.005% Brij®, pH 7.5] and measured continuously in a luminometer. The extent of the stimulation by the substance to be tested can be determined relative to the signal of the unstimulated reaction. […]

sGC in the CHO reporter cell, sequence (P20595 whole entry): as the sequence (P20595 whole entry) above
sGC in the CHO reporter cell, sequence (P19686 whole entry partner): as the sequence (P19686 whole entry partner) above

MEC (minimum effective concentration), sGC-activating activity in the CHO reporter cell [1]: 10 nM
MEC (minimum effective concentration), activating action at the sGC enzyme [2]: 17 nM
SMILES: CC(C(=O)O)C(c1ccc(Cl)c(NC(=O)C(c2ccc(Cl)cc2)[C@@H](C)C(F)(F)F)c1)C1CC1 (stereo partly drawn) [Example 30, 3-(4-Chloro-3-{[(3R)-2-(4-chlorophenyl)-4,4,4-trifluoro-3-methylbutanoyl]amino}phenyl)-3-cyclopropyl-2-methylpropanoic acid]
